Reference: PubChem BioAssay AID1963854 (Molecular Pharmacology Branch, DTP, NCI, 2024)

Test system: 186277-243-T-J2-PDC complex spheroid viability
Experiment: Anticancer human tumor 186277-243-T-J2-PDC patient-derived colon adenocarcinoma cell line growth inhibition [POLQ]
Conditions: for IC50: curve of first compound; for viability, T/C: stronger effect = lower value; active = viability on the fitted dose curve at most 10% of control; inactive = the rest
Protocol: Multicellular complex tumor spheroid response to Polymerase (POL) inhibitors (novobiocin, ART-558, RP6685) in combination with a variety of drugs and investigational agents in selected tumor cell lines
The POL inhibitors (novobiocin, ART-558, and RP6685) were evaluated both individually and in combination with standard of care and investigational anticancer small molecules within a complex spheroid model of solid tumors. . Complex spheroids include a stromal component modeled by human endothelial cells (HUVEC) and fibroblasts modeled by human mesenchymal stem cells (MSCs). The concentration ranges selected for each drug and investigational agent were based upon clinically achievable concentrations if the clinical Cmax of the agent was known.
Compounds. The drugs and investigational agents: novobiocin (NSC847541), ART-558 (NSC835418), RP-6685 (NSC848927), peposertib (NSC802822), ceralasertib (NSC780249), elimusertib (NSC800525), camonsertib (NSC841442), AZD-1390 (NSC803789), olaparib (NSC753686), talazoparib (NSC767125), rucaparib (NSC756644), sotorasib (NSC818433), MRTX-1133 (NSC836407), SN-38 (NSC673596), topotecan (NSC609699), epotoside (NSC141540), doxorubicin (NSC123127), gemcitabine (NSC613327), 5-fluorouracil (NSC19893), paclitaxel (NSC125973), vemurafenib (NSC761431), MSA-2 (NSC828583), SN-011 (NSC837082), adavosertib (NSC754352), prexasertib (NSC758257), carboplatin (NSC241240) and oxaliplatin (NSC266046), were obtained from the National Cancer Institute (NCI) Developmental Therapeutics Program Chemical Repository (21). The FDA-approved anticancer drug set is available from the Developmental Therapeutics Program at https://dtp.cancer.gov/organization/dscb/obtaining/. […] The stock solutions were prepared in dimethyl sulfoxide (DMSO, Sigma-Aldrich, St. Louis, MO, cat. D2650), except for the platinum compounds which were prepared in saline (Quality Biological, Gaithersburg, MD, cat. 114-055-101), at 800-fold the tested concentration and stored at -70 degrees C prior to their use. All drugs and investigational agents were tested over a range starting from a high concentration at or near the clinical Cmax and decreasing in half-log increments. If the clinical Cmax for an agent had not been determined, the highest concentration tested was 10 microM, except for SN-38, which was tested at a high concentration of 1 microM.
Cell Culture. All cells were maintained in an incubator at 37 degrees C and 5% CO2 with 95% humidity. The PDC lines were cultured according to standard operating procedures established by the NCI PDMR (https://pdmr.cancer.gov). Table 3 of the manuscript, lists the cell lines along with the number of the three cell types plated to form the mct-spheroids and media for tumor cell growth. After thawing, all PDC lines, except 997537-175-T-J1-PDC and 415267-285-R-J2-PDC, were cultured in Matrigel-coated flasks prepared with a working solution of 1X Ham's F-12 nutrient mix, without supplementation (Thermo Fisher Scientific, cat. 11765054), 100 U/mL penicillin-streptomycin (Thermo Fisher Scientific, cat. 15140122), and 2.5% Matrigel (Corning Inc., Corning, NY, cat. 354248) for the first three passages. The two PDC lines 997537-175-T-J1-PDC and 415267-285-R-J2-PDC were cultured on uncoated flasks. The 857933-349-R-J2-PDC line was cultured in 6C/Colon 1B media containing advanced DMEM/F-12 (Thermo Fisher Scientific, cat. 12634028), 10 mM HEPES (Thermo Fisher Scientific, cat. 15630080), 1X GlutaMAX supplement (Thermo Fisher Scientific, cat. 35050061), 0.1 mg/mL primocin (InvivoGen, San Diego, CA, cat. ant-pm-2), 10% defined fetal bovine serum, heat inactivated (HyClone Laboratories Inc., Logan, UT, cat. SH30070.03HI), 50% L-WRN conditioned media (ATCC, cat. CRL-3276), 1.25 mM N-Acetyl-L-cysteine (Sigma-Aldrich, cat. A9165), 10 mM nicotinamide (Sigma-Aldrich, cat. N0636), 1X B-27 supplement (Thermo Fisher Scientific, cat. 17504044), 1X N-2 supplement (Thermo Fisher Scientific, cat. […]

[1] = second compound 0.0316 µM, first compound 0.0316 µM
[2] = second compound 0.0316 µM, first compound 0.1 µM
[3] = second compound 0.1 µM, first compound 0.0316 µM
[4] = second compound 0.1 µM, first compound 0.1 µM
[5] = second compound 0.316 µM, first compound 0.0316 µM
[6] = second compound 0.316 µM, first compound 0.1 µM
[7] = second compound 1 µM, first compound 0.0316 µM
[8] = second compound 1 µM, first compound 0.1 µM
[9] = second compound 3.16 µM, first compound 0.0316 µM
[10] = second compound 3.16 µM, first compound 0.1 µM
[11] = second compound 10 µM, first compound 0.0316 µM
[12] = second compound 10 µM, first compound 0.1 µM
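Note: spheroids exposed to compounds for seven days.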

CC[C@@]1(O)C(=O)OCc2c1cc1n(c2=O)Cc2cc3c(CN(C)C)c(O)ccc3nc2-1 + Nc1ccc(C#CCN(C(=O)Cc2ncc(C(F)(F)F)cc2C(F)(F)F)c2ccc(F)cc2)nn1
> 0.1 µM: IC50 (second compound 0.0316 µM) | IC50 (second compound 0.1 µM) | IC50 (second compound 0.316 µM) | IC50 (second compound 1 µM) | IC50 (second compound 3.16 µM) | IC50 (second compound 10 µM)
inactive: viability, T/C (second compound 0.0316 µM, first compound 0.000316 µM) 114% | viability, T/C (second compound 0.0316 µM, first compound 0.001 µM) 98% | viability, T/C (second compound 0.0316 µM, first compound 0.00316 µM) 123% | viability, T/C (second compound 0.0316 µM, first compound 0.01 µM) 114% | viability, T/C [1] 136% | viability, T/C [2] 91.7% | viability, T/C (second compound 0.1 µM, first compound 0.000316 µM) 109% | viability, T/C (second compound 0.1 µM, first compound 0.001 µM) 93.8% | viability, T/C (second compound 0.1 µM, first compound 0.00316 µM) 90.6% | viability, T/C (second compound 0.1 µM, first compound 0.01 µM) 129% | viability, T/C [3] 128% | viability, T/C [4] 88.1% | viability, T/C (second compound 0.316 µM, first compound 0.000316 µM) 92.9% | viability, T/C (second compound 0.316 µM, first compound 0.001 µM) 87.2% | viability, T/C (second compound 0.316 µM, first compound 0.00316 µM) 108% | viability, T/C (second compound 0.316 µM, first compound 0.01 µM) 133% | viability, T/C [5] 124% | viability, T/C [6] 83.8% | viability, T/C (second compound 1 µM, first compound 0.000316 µM) 97.3% | viability, T/C (second compound 1 µM, first compound 0.001 µM) 105% | viability, T/C (second compound 1 µM, first compound 0.00316 µM) 117% | viability, T/C (second compound 1 µM, first compound 0.01 µM) 115% | viability, T/C [7] 130% | viability, T/C [8] 81.1% | viability, T/C (second compound 3.16 µM, first compound 0.000316 µM) 89.2% | viability, T/C (second compound 3.16 µM, first compound 0.001 µM) 91.5% | viability, T/C (second compound 3.16 µM, first compound 0.00316 µM) 104% | viability, T/C (second compound 3.16 µM, first compound 0.01 µM) 122% | viability, T/C [9] 124% | viability, T/C [10] 79.9% | viability, T/C (second compound 10 µM, first compound 0.000316 µM) 111% | viability, T/C (second compound 10 µM, first compound 0.001 µM) 89.7% | viability, T/C (second compound 10 µM, first compound 0.00316 µM) 116% | viability, T/C (second compound 10 µM, first compound 0.01 µM) 121% | viability, T/C [11] 107% | viability, T/C [12] 70.6%

CCc1cc2c(N3CCc4c(cc(Cn5ccnc5)cc4-c4cn(C)nc4C(F)(F)F)C3=O)cc(C)nc2c(OC)n1 + COC1C(OC(N)=O)C(O)C(Oc2ccc3c(O)c(NC(=O)c4ccc(O)c(CC=C(C)C)c4)c(=O)oc3c2C)OC1(C)C
> 10 µM: IC50 (second compound 0.0316 µM) | IC50 (second compound 0.1 µM) | IC50 (second compound 0.316 µM) | IC50 (second compound 1 µM) | IC50 (second compound 3.16 µM) | IC50 (second compound 10 µM)
inactive: viability, T/C [1] 100% | viability, T/C [2] 91.7% | viability, T/C (second compound 0.0316 µM, first compound 0.316 µM) 101% | viability, T/C (second compound 0.0316 µM, first compound 1 µM) 80.4% | viability, T/C (second compound 0.0316 µM, first compound 3.16 µM) 80.5% | viability, T/C (second compound 0.0316 µM, first compound 10 µM) 77.4% | viability, T/C [3] 88.1% | viability, T/C [4] 92.2% | viability, T/C (second compound 0.1 µM, first compound 0.316 µM) 92.7% | viability, T/C (second compound 0.1 µM, first compound 1 µM) 96.9% | viability, T/C (second compound 0.1 µM, first compound 3.16 µM) 100% | viability, T/C (second compound 0.1 µM, first compound 10 µM) 80.4% | viability, T/C [5] 95.6% | viability, T/C [6] 101% | viability, T/C (second compound 0.316 µM, first compound 0.316 µM) 101% | viability, T/C (second compound 0.316 µM, first compound 1 µM) 93.5% | viability, T/C (second compound 0.316 µM, first compound 3.16 µM) 85.3% | viability, T/C (second compound 0.316 µM, first compound 10 µM) 84.4% | viability, T/C [7] 99.1% | viability, T/C [8] 101% | viability, T/C (second compound 1 µM, first compound 0.316 µM) 111% | viability, T/C (second compound 1 µM, first compound 1 µM) 104% | viability, T/C (second compound 1 µM, first compound 3.16 µM) 104% | viability, T/C (second compound 1 µM, first compound 10 µM) 73.7% | viability, T/C [9] 93.4% | viability, T/C [10] 96.6% | viability, T/C (second compound 3.16 µM, first compound 0.316 µM) 86.3% | viability, T/C (second compound 3.16 µM, first compound 1 µM) 86.2% | viability, T/C (second compound 3.16 µM, first compound 3.16 µM) 98.9% | viability, T/C (second compound 3.16 µM, first compound 10 µM) 72.4% | viability, T/C [11] 96.5% | viability, T/C [12] 102% | viability, T/C (second compound 10 µM, first compound 0.316 µM) 104% | viability, T/C (second compound 10 µM, first compound 1 µM) 107% | viability, T/C (second compound 10 µM, first compound 3.16 µM) 99.2% | viability, T/C (second compound 10 µM, first compound 10 µM) 86.1%
